Results taken from PubChem BioAssay AID1918956 (Molecular Pharmacology Branch, DTP, NCI, 2023).
Values joined by “and” are separate entries in the source; they are usually repeats but may differ in a detail not shown here. Identical values can stand only once.

System: OVCAR-5 complex spheroids, viability
Assay: Anticancer human tumor OVCAR-5 cell line growth inhibition;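 further: spheroids exposed to agents for seven days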;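 on viability, T/C: 100% = DMSO vehicle control wells viability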
Conditions: for viability, T/C: stronger effect = lower value
Method in brief: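 Drug combinations with the LSD1 inhibitor iadademstat tested on tumor cells co-cultured as spheroids with endothelial cells and mesenchymal stem cells. Concentrations descended in half-log increments from clinical Cmax or 10 microM.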

[1] = curve of first compound, second compound 0.1 µM
[2] = curve of first compound, second compound 0.316 µM
[3] = curve of first compound, second compound 1 µM
[4] = curve of first compound, second compound 3.16 µM
[5] = curve of first compound, second compound 10 µM

CC(C)CC(NC(=O)CNC(=O)c1cc(Cl)ccc1Cl)B1OC(=O)CC(CC(=O)O)(C(=O)O)O1 (stereo not given) + NC1CC1c1ccc(-c2cccc(O)c2)cc1 showed an IC50 [1] greater than 100 nM, an IC50 [2] greater than 100 nM and an IC50 [3] greater than 100 nM. It also gave an IC50 [4] greater than 100 nM, an IC50 [5] of 99.8 nM and a viability, T/C (second compound 0.1 µM, first compound 0.000316 µM) of 92.4%. For the same molecule, the viability, T/C (second compound 0.1 µM, first compound 0.001 µM) was 87%, the viability, T/C (second compound 0.1 µM, first compound 0.00316 µM) was 89.8% and the viability, T/C (second compound 0.1 µM, first compound 0.01 µM) was 72.1%. It also gave a viability, T/C (second compound 0.1 µM, first compound 0.0316 µM) of 66.2%, a viability, T/C (second compound 0.1 µM, first compound 0.1 µM) of 55% and a viability, T/C (second compound 0.316 µM, first compound 0.000316 µM) of 96.6%. For the same molecule, the viability, T/C (second compound 0.316 µM, first compound 0.001 µM) was 92.1%, the viability, T/C (second compound 0.316 µM, first compound 0.00316 µM) was 80.4% and the viability, T/C (second compound 0.316 µM, first compound 0.01 µM) was 73.3%. The viability, T/C (second compound 0.316 µM, first compound 0.0316 µM) was 74.4%, the viability, T/C (second compound 0.316 µM, first compound 0.1 µM) was 57.5% and the viability, T/C (second compound 1 µM, first compound 0.000316 µM) was 98%. For the same molecule, the viability, T/C (second compound 1 µM, first compound 0.001 µM) was 91.6%, the viability, T/C (second compound 1 µM, first compound 0.00316 µM) was 79.3% and the viability, T/C (second compound 1 µM, first compound 0.01 µM) was 71.1%. The viability, T/C (second compound 1 µM, first compound 0.0316 µM) was 66.8%, the viability, T/C (second compound 1 µM, first compound 0.1 µM) was 53.6% and the viability, T/C (second compound 3.16 µM, first compound 0.000316 µM) was 79.6%. For the same molecule, the viability, T/C (second compound 3.16 µM, first compound 0.001 µM) was 78.7%, the viability, T/C (second compound 3.16 µM, first compound 0.00316 µM) was 83.9% and the viability, T/C (second compound 3.16 µM, first compound 0.01 µM) was 65.8%. For the same molecule, the viability, T/C (second compound 3.16 µM, first compound 0.0316 µM) was 64.3%, the viability, T/C (second compound 3.16 µM, first compound 0.1 µM) was 51.8% and the viability, T/C (second compound 10 µM, first compound 0.000316 µM) was 97.1%. For the same molecule, the viability, T/C (second compound 10 µM, first compound 0.001 µM) was 93.3%, the viability, T/C (second compound 10 µM, first compound 0.00316 µM) was 71.4% and the viability, T/C (second compound 10 µM, first compound 0.01 µM) was 70.3%. For the same molecule, the viability, T/C (second compound 10 µM, first compound 0.0316 µM) was 64.8% and the viability, T/C (second compound 10 µM, first compound 0.1 µM) was 47%.

Nc1ccccc1NC(=O)c1ccc(CNC(=O)OCc2cccnc2)cc1 + NC1CC1c1ccc(-c2cccc(O)c2)cc1 was tested, and the IC50 [1] was 123 nM, the IC50 [2] was 174 nM and the IC50 [3] was 145 nM. For the same molecule, the IC50 [4] was 111 nM, the IC50 [5] was 123 nM and the viability, T/C (second compound 0.1 µM, first compound 0.00949 µM) was 83.1%. The viability, T/C (second compound 0.1 µM, first compound 0.03 µM) was 71.6%, the viability, T/C (second compound 0.1 µM, first compound 0.0949 µM) was 54.5% and the viability, T/C (second compound 0.1 µM, first compound 0.3 µM) was 34.8%. The viability, T/C (second compound 0.1 µM, first compound 0.949 µM) was 19.2%, the viability, T/C (second compound 0.1 µM, first compound 3 µM) was 8.11% and the viability, T/C (second compound 0.316 µM, first compound 0.00949 µM) was 84.9%. For the same molecule, the viability, T/C (second compound 0.316 µM, first compound 0.03 µM) was 79.7%, the viability, T/C (second compound 0.316 µM, first compound 0.0949 µM) was 65.3% and the viability, T/C (second compound 0.316 µM, first compound 0.3 µM) was 35.5%. For the same molecule, the viability, T/C (second compound 0.316 µM, first compound 0.949 µM) was 19.4%, the viability, T/C (second compound 0.316 µM, first compound 3 µM) was 8.17% and the viability, T/C (second compound 1 µM, first compound 0.00949 µM) was 75.6%. The viability, T/C (second compound 1 µM, first compound 0.03 µM) was 65.9%, the viability, T/C (second compound 1 µM, first compound 0.0949 µM) was 62.2% and the viability, T/C (second compound 1 µM, first compound 0.3 µM) was 32.4%. It also gave a viability, T/C (second compound 1 µM, first compound 0.949 µM) of 19.8%, a viability, T/C (second compound 1 µM, first compound 3 µM) of 8.19% and a viability, T/C (second compound 3.16 µM, first compound 0.00949 µM) of 84%. For the same molecule, the viability, T/C (second compound 3.16 µM, first compound 0.03 µM) was 68.6%, the viability, T/C (second compound 3.16 µM, first compound 0.0949 µM) was 55.5% and the viability, T/C (second compound 3.16 µM, first compound 0.3 µM) was 30.6%. It also gave a viability, T/C (second compound 3.16 µM, first compound 0.949 µM) of 17.8%, a viability, T/C (second compound 3.16 µM, first compound 3 µM) of 7.56% and a viability, T/C (second compound 10 µM, first compound 0.00949 µM) of 79.6%. The viability, T/C (second compound 10 µM, first compound 0.03 µM) was 71.3%, the viability, T/C (second compound 10 µM, first compound 0.0949 µM) was 55.5% and the viability, T/C (second compound 10 µM, first compound 0.3 µM) was 32.1%. It also gave a viability, T/C (second compound 10 µM, first compound 0.949 µM) of 19.5% and a viability, T/C (second compound 10 µM, first compound 3 µM) of 9.48%.

With NC1CCC(NC2CC2c2ccccc2)CC1 (stereo not given) the viability, T/C (compound 0.1 µM) was 102% [middle of 25 runs], the viability, T/C (compound 0.316 µM) was 119% and 98.5% and the IC50 (compound alone, run of 11/29/2021) was greater than 10000 nM.

In the case of CC1COCCN1c1cc(C2(S(C)(=N)=O)CC2)nc(-c2ccnc3[nH]ccc23)n1 (stereo not given), the viability, T/C (compound 0.0316 µM) is reported as 106% and 102%, the viability, T/C (compound 0.1 µM) is reported as 110% and 101% and the viability, T/C (compound 0.316 µM) is reported as 90.1% and 76%. The viability, T/C (compound 1 µM) was 57.5% and 48.9%, the viability, T/C (compound 3.16 µM) was 41.4% and 34.1% and the viability, T/C (compound 10 µM) was 35.5% and 25.4%. For the same molecule, the IC50 (curve of compound) was 1640 nM and 957 nM.
